Source: US20090131343A1, “USE OF BRIDGED MACROLIDES OR TYLOSIN DERIVATIVES IN TREATING INFLAMMATORY BOWEL DISEASES” (priority 2007, published 2009)

System: NFkB
Experiment: In vitro inflammatory assay: TNFα-induced NFkB luciferase reporter in Jurkat cells
Type: cell-based
Details: for IC50 / inhibition at 120 µM: Homo sapiens; for IC50: read-out: IC50 (μM), in vitro inflammatory data (inhibition of NFkB activity)
Experimental: I. Protocol for In Vitro Inflammatory Assay:
• 1. Jurkat cell line expressing a luciferase reporter under the control of an NFkB promoter sequence was created. Clones were isolated using G418 and then characterized for enhanced luciferase activity following stimulation of cells with either TNFα or PMA+Ionomycin. • 2. Assay protocol was as follows: • Day 1: Cells were split to a density of 1.1×10^5 cells/mL. • Day 2: • Cells were adjusted to a density of 2×10^5/mL. • 100 μl of cells were added to each well of a 96-well plate. • Test compounds were diluted to 200 μg/mL in media (1% DMSO). • 100 μl of diluted test compound was added to cells. Final test compound concentration from […] was added and the final DMSO concentration=0.5%. Compounds were tested in duplicate. • Plates were incubated 1 hour at 37° C. • 10 μl of a 2.1 nM TNFα solution was added to each well. Plates were returned to 37° C. for another 4 hours. • TNFα-induced luciferase activity was determined using commercially available kits and a microplate luminometer. • Inhibition of NFkB activity was determined by comparing luciferase activity from test compound-treated cells to luciferase activity in 0.5% DMSO-treated (control) cells.

[1] = Jurkat NFkB-luciferase reporter cells, TNFα stimulation, 1 hour preincubation + 4 hours
[2] = Jurkat NFkB-luciferase reporter cells, TNFα stimulation

Structure (SMILES)	IC50 [1] [µM]	also measured
C=CCOC1C(C)OC(O[C@H]2[C@@H](CC=O)C[C@@H](C)C(=O)/C=C/C=C/C[C@@H](C)OC(=O)/C=C/[C@@H]2OC)C(O)C1N(C)C (stereo partly shown) [Entry 8]	41	–
CC[C@@H]1OC(=O)C[C@H](O)[C@@H](C)[C@H](OC2O[C@H](C)[C@H](OC(C)=O)[C@H](N(C)C)[C@@H]2OC(C)=O)[C@H](CCO)C[C@H](C)C(=O)/C=C/C(C)=C/[C@@H]1CO[Si](C)(C)C(C)(C)C (stereo partly shown) [Entry 11]	22	–
CC[C@H]1OC(=O)[C@H](C)[C@@H](O[C@H]2C[C@@](C)(OC)[C@@H](O)[C@H](C)O2)[C@H](C)[C@@H](O[C@@H]2O[C@H](C)C[C@H](N(C)C)[C@H]2O)[C@](C)(O)C[C@@H](C)C(=O)[C@H](C)[C@@H](O)[C@]1(C)O [Erythromycin]	–	IC50 (μM), in vitro inflammatory data (inhibition of NFkB activity) [1]: Inactive
CO[C@@H]1[C@@H](O[C@@H]2O[C@H](C)[C@@H](O[C@H]3C[C@@](C)(O)[C@@H](OC(=O)CC(C)C)[C@H](C)O3)[C@H](N(C)C)[C@H]2O)[C@@H](CC=O)C[C@@H](C)[C@@H](O)/C=C/C=C/C[C@@H](C)OC(=O)C[C@H]1OC(C)=O [Josamycin]	> 120	inhibition at 120 µM [2]: ~20%
CC[C@H]1OC(=O)C[C@@H](O)[C@H](C)[C@@H](O[C@@H]2O[C@H](C)[C@@H](OC(=O)c3ccccc3)[C@H](N(C)C)[C@H]2OC(=O)c2ccccc2)[C@@H](CC=O)C[C@@H](C)C(=O)/C=C/C(C)=C/[C@@H]1CO [compound (3)]	–	activity in vitro inflammatory assay compared with Erythromycin, Clarithromycin, Josamycin and Tylosin (comparison in words): improved activity

More lines, main results first:

IC50 [1] [µM]	Structure (SMILES)	also measured
30	CC[C@H]1OC(=O)[C@H](C)[C@@H](C)[C@H](C)[C@H](OC2O[C@H](C)C[C@H](N(C)C)[C@@H]2OC(=O)c2ccccc2)[C@](C)(O)C[C@H](C)/C(=N\OCOCCN2CCN(c3ccccc3)CC2)[C@@H](C)[C@H](O)[C@@]1(C)O (stereo partly shown) [Entry 10]	–
17	CC[C@H]1OC(=O)C[C@@H](O)[C@H](C)[C@@H](OC2O[C@H](C)[C@@H](OC(=O)c3ccccc3)[C@H](C(C)C)[C@H]2OC(=O)c2ccccc2)[C@@H](CC=O)C[C@@H](C)C(=O)/C=C/C(C)=C/[C@@H]1CO (stereo partly shown) [Entry 12]	–
> 120	CC[C@H]1OC(=O)C[C@@H](O)[C@H](C)[C@@H](O[C@@H]2O[C@H](C)[C@@H](O[C@H]3C[C@@](C)(O)[C@@H](O)[C@H](C)O3)[C@H](N(C)C)[C@H]2O)[C@@H](CC=O)C[C@@H](C)C(=O)/C=C/C(C)=C/[C@@H]1CO[C@@H]1O[C@H](C)[C@@H](O)[C@@H](OC)[C@H]1OC [Tylosin]	inhibition at 120 µM [2]: ~20%
